Results published in patent US11208446B2, “Agents and methods for treating CBP-dependent cancers” (priority 2016, dated 2021).

Tests used:
[1] = system: H3K27Ac-driven oncogenic enhancers; test: ChIP-seq of H3K27Ac enhancers in AML cells; format: cell-based, human
Procedure: Chromatin immunoprecipitation and sequencing (ChIP-seq). Briefly, cells were fixed in 1% formalin in phosphate-buffered saline (PBS) for 10 minutes at room temperature. Glycine (125 mM final concentration) and Tris-HCl pH 8 (100 mM final concentration) was added to the cells and cells were washed twice in ice-cold PBS and resuspended in sodium dodecyl sulfate (SDS) lysis buffer (1% SDS, 10 mM EDTA, 50 mM Tris-HCl, pH 8.1). Lysates were sonicated using the Covaris […] adaptive focused sonicator to obtain 100-500 bp chromatin fragments (Covaris, Woburn, Calif.). Lysates containing sheared chromatin fragments were resuspended in 0.01% SDS, 1.1% Triton-X100, 1.2 mM EDTA, 16.7 mM Tris-HCl, pH 8.1, 167 mM NaCl. Lysates and antibody-coupled beads were incubated over night at 4° C. Precipitates were washed sequentially with Mixed Micelle Wash Buffer (15 ml 5M NaCl-150 mM Final, 10 ml 1M Tris-Cl pH 8.1, 5 ml 0.5M EDTA, pH 8.0, 40 ml 65% w/v sucrose, 1 ml 10% NaN3, 25 ml 20% Triton X-100, 10 ml 10% SDS, Add dH2O to 500 ml), LiCl washing solution (0.5% deoxycholic acid, 1 mM EDTA, 250 mM LiCl, 0.5% NP-40, 10 mM Tris-Cl pH 8.0, 0.2% NaN3) and then TBS buffer (20 mM Tris-Cl pH 7.4, 150 mM NaCl). Elution performed in elution buffer (1% SDS, 0.1 M NaHCO3). […] Libraries were sequenced on the Illumina HiSeq 2500 instruments, with 30 million 2×50 bp paired reads.

[2] = system: MOLM13, MV411, ML2, and HL60 cell lines; test: Cell viability, live cell count by Trypan blue exclusion; format: cell-based, human; conditions: 10 μM and 20 μM every 48 hours for 6 days
Procedure: Cell culture. The human AML lines MV411, MOLM13, ML2, and HL60 were obtained from the American Type Culture Collection (ATCC, Manassas, Va., USA). Umbilical cord blood was obtained from the New York Blood Center. The identity of all cell lines was verified by STR analysis (Genetica DNA Laboratories, Burlington, N.C., USA) and absence of Mycoplasma sp. contamination was determined using Lonza MycoAlert (Lonza Walkersville, Inc., Walkersville, Md., USA). Cell lines were cultured in 5% CO2 in a humidified atmosphere at 37° C. in RPMI medium supplemented with 10% fetal bovine serum (FBS) and antibiotics (100 U/ml penicillin and 100 μg/ml streptomycin). Cell viability analysis. Cells were resuspended and plated at a concentration of 2×10^5 cells in 200 μL in 96-well tissue culture plates. Media with peptides was replaced every 48 hours. To assess the number of viable cells, cells were resuspended in PBS and 10 μL mixed in a 1:1 ratio with 0.4% Trypan Blue (Thermo Fisher) and counted using a hematocytometer (Hausser Scientific, Horsham, Pa., USA). To assess viability using an ATP-based assay, cell viability was assessed using the CellTiter-Glo Luminescent Viability assay, according to the manufacturer's instructions (Promega). Luminescence was recorded using the Infinite M1000Pro plate reader using integration time of 250 milliseconds (Tecan).

[3] = system: MYB-dependent gene expression; test: RNA-seq gene expression after peptide treatment; format: cell-based, human
[4] = system: MYC and BCL2 mRNA expression; test: RT-qPCR of BCL2 and MYC mRNA normalized to GAPDH; format: cell-based; conditions: human AML cell lines
Procedure: Quantitative RT-PCR. RNA was isolated using Trizol reagent according to the manufacturer's instructions (Life Technologies). Complementary DNA was synthesized using the SuperScript III First-Strand Synthesis system according to the manufacturer's instructions (Invitrogen). Quantitative real-time PCR was performed using the KAPA SYBR FAST PCR polymerase with 20 ng template and 200 nM primers, according to the manufacturer's instructions (Kapa Biosystems, Wilmington, Mass., USA). PCR primers are listed below. Ct values were calculated using ROX normalization using the ViiA 7 software (Applied Biosystems).

[5] = system: primary patient-derived MLL-rearranged leukemia cells; test: Primary patient derived xenograft, survival analysis; format: in vivo, NSG mice; conditions: 50 mg/kg daily intraperitoneal, days 3-17, log-rank p=0.0038
Procedure: Mouse studies. All mouse experiments were carried out in accordance with institutional animal protocols. Two hundred thousand primary AML MLL-rearranged leukemia cells were suspended in […] of PBS and transplanted via tail vein injection into 8-week-old sublethally irradiation (200 rad) female NOD.Cg-Prkdc(scid)Il2rg(tm1Wjl)/SzJ mice (The Jackson Laboratory, Bar Harbor, Me., USA). Recipient mice were maintained on antibiotic supplementation in chow (0.025% trimethoprim, 0.124% sulfamethoxazole, Sulfatrim). Three days after transplant, mice were randomly assigned to experimental treatment groups. MYBMIM peptide suspended in PBS was administered daily through intraperitoneal injection at a daily dose of 50 mg/kg. Mice were treated from days 3-17 of this study for a total of 14 days and then monitored daily with clinical examination for survival analysis.
Statistical Analysis. For comparisons between two sample sets, statistical analysis of means was performed using 2-tailed, unpaired Student's t-tests. Survival analysis was done using the Kaplan-Meier method, as assessed using a log-rank test. For gene expression analysis, statistical significance was assessed using paired t-tests.

CC[C@@H](C)[C@@H](NC(=O)[C@@H](CCCCN)NC(=O)[C@@H](CCC(=O)O)NC(=O)[C@@H](CC(C)C)NC(=O)[C@@H](CCC(=O)O)NC(=O)[C@@H](CC(C)C)NC(=O)[C@@H](CC(C)C)NC(=O)[C@@H](CC(C)C)NC(=O)[C@@H](CCSC)NC(=O)[C@@H](CO)NC(=O)[C@H](NC(=O)[C@@H](CCC(=O)O)NC(=O)[C@@H](CC(N)=O)NC(=O)[C@@H](CCC(=O)O)NC(=O)[C@@H](CC(C)C)NC(=O)[C@@H](CCCCN)NC(C)=O)[C@H](C)O)C(=O)N[C@H](CCCNC(=N)N)C(=O)N[C@H](CCCCN)C(=O)NCC(=O)NCC(=O)N[C@H](CCCNC(=N)N)C(=O)N[C@H](CCCNC(=N)N)C(=O)N[C@H](CCCNC(=N)N)C(=O)N[C@H](CCC(N)=O)C(=O)N[C@H](CCCNC(=N)N)C(=O)N[C@H](CCCNC(=N)N)C(=O)N[C@H](CCCCN)C(=O)N[C@H](CCCCN)C(=O)N[C@H](CCCNC(=N)N)C(=O)NCC(=O)N[C@H](Cc1ccc(O)cc1)C(N)=O [MYBMIM]
H3K27Ac-driven oncogenic enhancers [1]: obliteration | AML cell death (live cells on Day 6) [2]: induction of AML cell death | MYC and BCL2 expression (volcano plot) ([3]; MV411 cells, MYBMIM vs control): significantly downregulated | MYB-dependent gene expression (RNA-seq) ([3]; human AML cells, 6 hours, 20 μM, vs TG3 and control): significant down-regulation | MYC and BCL2 mRNA expression as a percentage of GAPDH [4]: downregulation | survival of mice (Kaplan-Meier) [5]: prolongs survival | survival of mice (Kaplan-Meier) ([5]; listed as SEQ ID NO:1): impeded leukemia progression and extended survival
